Results from ChEMBL document CHEMBL1201862, “PubChem BioAssay data set” (2004).
Activity calls are given as the source filed them.

How the values were obtained:
[1] = A Cell Based Secondary Assay To Explore Cytotoxicity of Compounds that Sensitize Mycobacterium Tuberculosis to Beta-Lactam Antibiotics.; format: functional
Caspase-7 = Caspase-7 (Homo sapiens, UniProt P55210); test: potency of procaspase-7 enzyme activation – biochemical, absorbance, human, dual procaspase-3/-7 activator project, dose response (AID 504330)
Caspase-3 = target: T1, Caspase-3 (Homo sapiens, UniProt P42574); test: activators of human procaspase-3 D3A mutant – biochemical, absorbance, PC-3 D3A mutant, counter-screen for dual procaspase-3/7 activator project, dose response (AID 504328)
T1 sequence (P42574 whole entry): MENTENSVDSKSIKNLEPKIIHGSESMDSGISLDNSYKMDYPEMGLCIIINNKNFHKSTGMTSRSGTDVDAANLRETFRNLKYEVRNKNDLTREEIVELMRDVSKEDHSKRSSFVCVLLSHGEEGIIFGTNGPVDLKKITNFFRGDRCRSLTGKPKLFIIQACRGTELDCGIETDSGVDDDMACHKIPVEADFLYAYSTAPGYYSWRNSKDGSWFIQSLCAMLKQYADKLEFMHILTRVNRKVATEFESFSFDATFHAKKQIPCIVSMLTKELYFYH

[2] = viability of PTEN-deleted HCT116 cells – cell-based, HCT116 PTEN knockout, dose response (AID 1047); format: functional;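 further: HCT116 colon tumor cells with PTEN knocked out; cells exposed to compound for 60 hours before readout; potency for loss of cell viability measured by luminescence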
[3] = viability of HCT116 lacking mutant beta-catenin – cell-based, human colon tumor, dose response (AID 1045); format: functional;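 further: HCT116 colon tumor cells with beta catenin knocked out; cells exposed to compound for 60 hours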
Coagulation factor XII = target: T2, Coagulation factor XII (Homo sapiens, UniProt P00748); format: functional;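 further: activated factor XIIa alpha cleaving a fluorogenic AMC peptide substrate; inhibitor potency from loss of enzyme activity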
T2 sequence (P00748 whole entry): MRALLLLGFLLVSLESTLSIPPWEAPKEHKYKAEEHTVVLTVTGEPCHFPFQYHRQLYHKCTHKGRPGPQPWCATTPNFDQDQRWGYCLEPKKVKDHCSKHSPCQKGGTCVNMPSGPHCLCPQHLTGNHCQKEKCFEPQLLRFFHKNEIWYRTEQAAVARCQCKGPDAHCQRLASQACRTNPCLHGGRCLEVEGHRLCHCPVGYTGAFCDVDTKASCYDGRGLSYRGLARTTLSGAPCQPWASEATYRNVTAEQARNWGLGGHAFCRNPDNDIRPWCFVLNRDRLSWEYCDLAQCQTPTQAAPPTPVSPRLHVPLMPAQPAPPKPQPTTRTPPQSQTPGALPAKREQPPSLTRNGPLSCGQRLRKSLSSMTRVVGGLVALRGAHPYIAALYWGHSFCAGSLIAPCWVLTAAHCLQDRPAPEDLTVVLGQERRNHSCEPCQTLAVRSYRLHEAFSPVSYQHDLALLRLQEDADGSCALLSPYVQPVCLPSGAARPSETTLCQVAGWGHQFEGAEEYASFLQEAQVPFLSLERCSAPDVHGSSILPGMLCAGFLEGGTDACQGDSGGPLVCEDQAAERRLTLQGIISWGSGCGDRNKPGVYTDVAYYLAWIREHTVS

[4] = target: Induced myeloid leukemia cell differentiation protein Mcl-1 (Homo sapiens, UniProt Q07820); format: functional
Bcl-2-like protein 10 = Bcl-2-like protein 10 (Homo sapiens, UniProt Q9HD36); test: Bcl-B/TR3 peptide binding disruption – biochemical, fluorescence polarization, FITC-TR3 peptide, selectivity assay for Bfl-1 inhibitor project, primary screen (AID 748);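 further: fluorescence polarization from a fluorescein-labelled TR3 peptide binding purified Bcl-B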
[5] = target: T3, Carboxy-terminal domain RNA polymerase II polypeptide A small phosphatase 1 (Homo sapiens, UniProt Q9GZU7); test: CTDSP1 inhibitors, concentration-response, biochemical, absorbance readout, ultra-high-throughput screen actives (AID 540297); format: functional
T3 sequence (Q9GZU7 whole entry): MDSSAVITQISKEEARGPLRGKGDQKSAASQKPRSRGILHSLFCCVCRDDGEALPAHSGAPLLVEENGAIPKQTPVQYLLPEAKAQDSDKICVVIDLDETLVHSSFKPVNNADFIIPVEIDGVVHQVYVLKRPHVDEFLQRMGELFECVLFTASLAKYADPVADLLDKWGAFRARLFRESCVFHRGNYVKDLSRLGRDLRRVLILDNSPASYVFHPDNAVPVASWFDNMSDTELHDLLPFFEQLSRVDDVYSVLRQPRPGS

Protein RecA = target: T4, Protein RecA (Mycobacterium tuberculosis, UniProt P9WHJ3); test: Fluorescence Cell-Free Homogeneous Dose Retest to Identify Inhibitors of RecA-Intein Splicing Activity. [Related pubchem assays (depositor defined):AID2097, AID2223, AID489010, AID492950]; format: functional
T4 sequence (P9WHJ3 whole entry): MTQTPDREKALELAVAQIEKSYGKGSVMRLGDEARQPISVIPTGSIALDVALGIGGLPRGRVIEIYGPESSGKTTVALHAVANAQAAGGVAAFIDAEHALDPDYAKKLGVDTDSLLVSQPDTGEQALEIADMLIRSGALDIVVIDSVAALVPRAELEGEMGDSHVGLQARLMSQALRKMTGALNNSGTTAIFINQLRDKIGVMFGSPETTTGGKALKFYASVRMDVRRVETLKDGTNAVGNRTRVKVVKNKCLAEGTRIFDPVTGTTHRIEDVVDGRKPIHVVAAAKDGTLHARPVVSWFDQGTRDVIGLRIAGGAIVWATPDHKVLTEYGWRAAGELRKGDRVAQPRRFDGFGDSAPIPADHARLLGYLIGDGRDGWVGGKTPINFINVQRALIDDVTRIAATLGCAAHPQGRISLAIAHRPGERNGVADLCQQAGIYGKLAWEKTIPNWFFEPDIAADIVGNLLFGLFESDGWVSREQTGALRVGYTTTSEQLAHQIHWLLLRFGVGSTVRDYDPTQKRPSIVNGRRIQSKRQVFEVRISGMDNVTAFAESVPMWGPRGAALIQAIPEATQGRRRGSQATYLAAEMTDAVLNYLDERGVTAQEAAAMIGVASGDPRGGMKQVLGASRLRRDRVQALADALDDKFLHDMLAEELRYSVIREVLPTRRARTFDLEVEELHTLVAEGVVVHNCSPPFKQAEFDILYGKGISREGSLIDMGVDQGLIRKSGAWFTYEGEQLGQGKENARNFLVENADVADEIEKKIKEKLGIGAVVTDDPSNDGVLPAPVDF

[6] = target: G-protein coupled receptor 35 (Homo sapiens, UniProt Q9HC97); test: inhibition of zaprinast-stimulated GPR35 beta-arrestin translocation – imaging, U2OS, beta-arrestin-GFP, zaprinast agonist, primary screen (AID 2058); format: functional;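 further: antagonist potency meaning inhibition of agonist-induced arrestin redistribution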
[7] = target: T5, Replicative DNA helicase DnaB (Mycobacterium tuberculosis, UniProt P9WMR3); test: DnaB intein splicing inhibitors, dose response, biochemical, cell-free fluorescence (AID 449749); format: functional
T5 sequence (P9WMR3 whole entry): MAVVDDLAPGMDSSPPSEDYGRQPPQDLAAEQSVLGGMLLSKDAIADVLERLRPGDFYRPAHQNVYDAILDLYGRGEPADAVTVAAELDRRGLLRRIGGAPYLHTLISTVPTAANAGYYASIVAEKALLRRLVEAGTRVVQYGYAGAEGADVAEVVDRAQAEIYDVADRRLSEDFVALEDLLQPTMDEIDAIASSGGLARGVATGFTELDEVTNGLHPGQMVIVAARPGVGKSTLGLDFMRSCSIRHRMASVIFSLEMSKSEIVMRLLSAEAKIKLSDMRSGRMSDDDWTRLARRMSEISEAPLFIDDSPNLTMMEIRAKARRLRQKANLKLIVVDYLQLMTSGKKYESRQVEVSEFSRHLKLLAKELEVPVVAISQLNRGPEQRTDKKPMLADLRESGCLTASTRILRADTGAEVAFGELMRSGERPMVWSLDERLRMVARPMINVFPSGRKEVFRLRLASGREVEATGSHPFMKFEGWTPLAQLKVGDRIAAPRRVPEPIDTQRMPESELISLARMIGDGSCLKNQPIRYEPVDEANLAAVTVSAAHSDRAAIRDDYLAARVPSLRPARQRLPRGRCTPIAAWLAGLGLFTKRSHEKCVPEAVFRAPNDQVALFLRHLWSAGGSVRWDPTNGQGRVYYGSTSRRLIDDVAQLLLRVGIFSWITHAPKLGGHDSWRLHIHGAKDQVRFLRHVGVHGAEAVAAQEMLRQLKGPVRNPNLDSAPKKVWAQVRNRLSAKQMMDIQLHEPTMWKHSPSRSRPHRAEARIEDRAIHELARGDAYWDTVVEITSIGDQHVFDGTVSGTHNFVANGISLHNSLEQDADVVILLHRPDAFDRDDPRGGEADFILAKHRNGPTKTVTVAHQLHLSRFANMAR

[8] = target: Scavenger receptor class B member 1 (Mus musculus, UniProt Q61009); test: mouse SR-BI DiI-HDL uptake blockers – ldlA[mSR-BI] cells, fluorescence, cherry pick, dose response (AID 493194); format: functional, cell-based;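 further: cellular uptake of fluorescent DiI-labeled HDL measured as cell fluorescence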
Chain of Scavenger receptor class B member 1 (Q61009 whole entry): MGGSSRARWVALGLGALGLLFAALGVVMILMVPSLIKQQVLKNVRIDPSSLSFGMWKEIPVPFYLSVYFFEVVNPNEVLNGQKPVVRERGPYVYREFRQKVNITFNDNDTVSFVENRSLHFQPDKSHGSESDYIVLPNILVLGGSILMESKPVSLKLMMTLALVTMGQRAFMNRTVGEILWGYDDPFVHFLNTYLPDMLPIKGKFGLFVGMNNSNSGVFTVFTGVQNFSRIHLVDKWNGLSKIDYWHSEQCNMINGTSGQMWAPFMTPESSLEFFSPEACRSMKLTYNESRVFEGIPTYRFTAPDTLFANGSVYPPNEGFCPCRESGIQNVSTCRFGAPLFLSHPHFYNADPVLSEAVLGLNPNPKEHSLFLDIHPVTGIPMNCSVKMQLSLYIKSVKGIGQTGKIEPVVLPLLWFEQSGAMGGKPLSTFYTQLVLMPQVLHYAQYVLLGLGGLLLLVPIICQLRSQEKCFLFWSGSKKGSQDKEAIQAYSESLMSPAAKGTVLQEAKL

Chain of Bcl-2-like protein 10 (Q9HD36 whole entry, the tested form may be a part): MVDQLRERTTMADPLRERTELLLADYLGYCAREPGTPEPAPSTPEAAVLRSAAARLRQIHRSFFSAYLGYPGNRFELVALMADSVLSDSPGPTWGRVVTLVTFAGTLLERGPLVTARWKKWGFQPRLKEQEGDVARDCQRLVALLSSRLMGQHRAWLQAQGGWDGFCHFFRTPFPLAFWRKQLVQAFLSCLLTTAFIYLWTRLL
Chain of Induced myeloid leukemia cell differentiation protein Mcl-1 (Q07820 whole entry): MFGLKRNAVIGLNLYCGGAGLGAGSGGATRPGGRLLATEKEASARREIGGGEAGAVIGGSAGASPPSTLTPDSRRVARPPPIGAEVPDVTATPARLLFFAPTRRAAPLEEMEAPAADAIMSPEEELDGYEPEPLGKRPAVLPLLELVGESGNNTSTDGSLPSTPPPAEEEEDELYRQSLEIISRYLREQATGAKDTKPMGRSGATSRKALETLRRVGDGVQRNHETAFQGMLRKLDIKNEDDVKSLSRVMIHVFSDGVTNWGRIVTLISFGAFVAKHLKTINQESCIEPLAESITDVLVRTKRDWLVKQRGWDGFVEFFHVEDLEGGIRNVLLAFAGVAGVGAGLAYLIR
Chain of G-protein coupled receptor 35 (Q9HC97 whole entry): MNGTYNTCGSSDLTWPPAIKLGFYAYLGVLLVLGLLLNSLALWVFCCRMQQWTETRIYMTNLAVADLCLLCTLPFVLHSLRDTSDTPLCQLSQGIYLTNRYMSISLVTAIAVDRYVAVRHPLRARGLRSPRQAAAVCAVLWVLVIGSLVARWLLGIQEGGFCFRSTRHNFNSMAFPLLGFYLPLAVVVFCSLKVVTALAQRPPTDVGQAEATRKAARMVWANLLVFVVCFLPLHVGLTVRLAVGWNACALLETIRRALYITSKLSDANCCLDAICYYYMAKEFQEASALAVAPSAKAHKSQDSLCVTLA

Q: For `O=c1c(O)c(-c2ccc3c(c2)OCO3)oc2ccccc12`, which CC50 [1] is on record?
A: Its CC50 is > 40 µM (active).

Q: What about the EC50 (Caspase-7) of the same molecule?
A: The EC50 was > 85.3 µM (inactive).

Q: What about the EC50 (Caspase-3) of the same molecule?
A: The EC50 was > 85.3 µM (inactive).

Q: What about the EC50 [2] of the same molecule?
A: Its EC50 is 41.7 µM (active).

Q: And the EC50 [3]?
A: Its EC50 is 23.1 µM (active).

Q: For `O=C(NCc1ccco1)c1c2c(nc3ccccc13)CCC2`, which IC50 (Coagulation factor XII) is on record?
A: The IC50 was > 50 µM (inactive).

Q: And the IC50 [4]?
A: Its IC50 is 4.33 µM (active).

Q: What about the IC50 (Bcl-2-like protein 10) of the same molecule?
A: Its IC50 is 16.4 µM (active).

Q: And the IC50 [5]?
A: Its IC50 is 5.65 µM (active).

Q: With `O=C(/C=C/c1ccco1)c1ccc(NC(=O)C23CC4CC(CC(C4)C2)C3)cc1` as the molecule, how does the EC50 (Protein RecA) read?
A: Its EC50 is 55.5 µM (active).

Q: What about the IC50 [6] of the same molecule?
A: The IC50 was 4.96 µM (active).

Q: What about the AC50 [7] of the same molecule?
A: Its AC50 is > 380 µM (inactive).

Q: With `CCOC(=O)N1CCN(C(=O)C2CCN(C(=O)Nc3ccccc3)CC2)CC1` as the molecule, how does the AC50 [8] read?
A: The AC50 was 136 µM (active).
